Patent US9949976B2, “Kinase inhibitor and use thereof” (Sihuan Pharmaceutical Holdings Group Ltd., priority 2013, dated 2018)

Columns and labels:
[1] = test system: MCF-7 human breast cancer cell; assay: BrdU cell proliferation assay (Cell Signaling kit); type: cell-based; details: MCF7, 72 h, read-out: In vitro cell-inhibiting activity IC50 MCF-7
Experimental: (§1) Experimental method: cell proliferation assay was carried out by BrdU method (BrdU cell proliferation assay kit, Cell Signaling Technology Company).
(§2) Preparation of gradient dilution solutions of test compound: the stock solution containing 10 mM test compound was subjected to 4-fold stepwise dilution with DMSO to prepare solutions containing 2.5 mM, 625 μM, 156 μM, 39 μM, 9.8 μM, and 2.5 μM test compound, respectively. 2 μL DMSO-diluted compound was added to 198 μL culture medium containing 10% FBS to prepare […] test compound, wherein the maximum concentration of the test compound was 100 μM, the concentration of DMSO was 1%, and there were 7 concentration gradients.
MCF-7 medium: DMEM+10% FBS+0.01 mg/mL insulin
(1) Cells grown to 80% confluence (in exponential growth phase) were digested with pancreatin, and centrifuged to collect the cells. MDA-MB-435S and U87MG cells were re-suspended in FBS-free culture medium, counted, and seeded to a 96-well plate; MDA-MB-435S cells were seeded at 3000 cells/well/81 μL; U87MG cells were seeded at 4000 cells/well/81 MCF-7 cells were resuspended in culture medium containing 1% FBS, and counted and seeded to a 96-well plate, at 4000 cell/well/82 μL. The plates were placed in a cell incubator at 37° C. […]
(9) To each well, stop solution (100 μL) was added, and OD value at 450 nm was measured by ELISA instrument […]

[2] = test system: esophageal cancer PDX model; assay: In vivo pharmacodynamics, esophageal cancer PDX model; design: species or system female BALB/c nude mouse; details: 150 mg/kg PO QD 21 days
Experimental: Tumor tissues were harvested from tumor-bearing mice of esophageal cancer PDX model, cut into pieces with diameter of 2-4 mm and seeded subcutaneously to right lateral thorax of female BALB/c nude mouse. When the tumors' average volume reached about 150 mm^3, the animals were grouped and administered with a drug. Compound 1 was orally administrated once a day at an amount of 150 mg/kg, for 21 days. The volume of the drug for administration is 0.1 mL/10 g according to animal's body weight.
Tumor volume was measured with vernier calipers twice a week by measuring the major diameter and the minor diameter. The tumor volume is calculated by the following formula: volume=0.5×(major diameter)×(minor diameter)^2. The relative tumor volume (RTV) and the proliferation ratio (T/C) were calculated according to the result of measurement. RTV=Vt/V0, wherein Vt is the average tumor volume on the t day after grouping, and V0 is the average tumor volume on the day of grouping. T/C (%)=RTV of treatment group/RTV of solvent control group×100%.
One-way ANOVA was used for analysing the group statistical analysis of tumor volumes. p<0.05 was regarded as having significant difference.

[3] = test system: HGC-27 gastric cancer cell; assay: BrdU cell proliferation assay (Cell Signaling kit); type: cell-based; details: Homo sapiens, HGC-27, 72 h; read-out: In vitro cell-inhibiting activity IC50 HGC-27
Experimental: as §1, §2
HGC-27 medium: DMEM+10% FBS
(1) Cells grown to 80% confluence (in exponential growth phase) were digested with pancreatin, and centrifuged to collect the cells. Cells were re-suspended in FBS-free culture medium, counted, and seeded to a 96-well plate at 4000 cells/well/81 μL. The plates were placed in a cell incubator at 37° C.
(2) After 24 h culture, 9 μL FBS was added to each well to reach a final FBS concentration of 10%. […]
(9) To each well, 100 μL stop solution was added, and OD value at 450 nm was measured by ELISA instrument 3. […]

Row | SMILES | IC50 [1] [nM] | T/C (proliferation ratio) ([2]; 150 mg/kg) [%] | Tumor volume after administration ([2]; average ± standard error) [mm^3] | Tumor volume before administration ([2]; average ± standard error) [mm^3] | IC50 [3] [nM]
1 | CCN1CCN(Cc2ccc(Nc3ncc(F)c(-c4cc(F)c5nc(C)n(C(C)C)c5c4)n3)nc2)CC1 [LY2835219, reference compound] | 176 | – | – | – | –
2 | CCN1CCN(Cc2cnc(Nc3cc(-c4cc(F)c5nc(C)n(C(C)C)c5c4)c(F)cn3)nc2)CC1 [Compound 1, 5-((4-ethylpiperazin-1-yl)methyl)-N-(5-fluoro-4-(4-fluoro-1-isopropyl-2-methyl-1H-benzo[d]imidazol-6-yl)pyridin-2-yl)pyrimidin-2-amine] | – | 29 | 221.6 ± 27.2 | 177.7 ± 28.5 | 316
